In patent publication US20250230165A1, “HETEROCYCLIC COMPOUNDS FOR USE IN THE TREATMENT OF CANCER” (ARTIOS PHARMA LIMITED, priority 2021, published 2025):

biological target: T1, Human Polθ polymerase domain (aa1820-2590) (Homo sapiens, UniProt O75417); assay: Polθ Polymerase Domain Kinact/KI Assay (PicoGreen); type: biochemical; conditions: 0.8 nM Polθ, 100 nM DNA substrate, kobs vs [I] fit for 2-step covalent inhibitor
T1 construct: Human Polθ polymerase domain (aa1820-2590) was expressed in E. coli; made in house; host or cells: E. coli
T1 sequence (O75417 1820-2590): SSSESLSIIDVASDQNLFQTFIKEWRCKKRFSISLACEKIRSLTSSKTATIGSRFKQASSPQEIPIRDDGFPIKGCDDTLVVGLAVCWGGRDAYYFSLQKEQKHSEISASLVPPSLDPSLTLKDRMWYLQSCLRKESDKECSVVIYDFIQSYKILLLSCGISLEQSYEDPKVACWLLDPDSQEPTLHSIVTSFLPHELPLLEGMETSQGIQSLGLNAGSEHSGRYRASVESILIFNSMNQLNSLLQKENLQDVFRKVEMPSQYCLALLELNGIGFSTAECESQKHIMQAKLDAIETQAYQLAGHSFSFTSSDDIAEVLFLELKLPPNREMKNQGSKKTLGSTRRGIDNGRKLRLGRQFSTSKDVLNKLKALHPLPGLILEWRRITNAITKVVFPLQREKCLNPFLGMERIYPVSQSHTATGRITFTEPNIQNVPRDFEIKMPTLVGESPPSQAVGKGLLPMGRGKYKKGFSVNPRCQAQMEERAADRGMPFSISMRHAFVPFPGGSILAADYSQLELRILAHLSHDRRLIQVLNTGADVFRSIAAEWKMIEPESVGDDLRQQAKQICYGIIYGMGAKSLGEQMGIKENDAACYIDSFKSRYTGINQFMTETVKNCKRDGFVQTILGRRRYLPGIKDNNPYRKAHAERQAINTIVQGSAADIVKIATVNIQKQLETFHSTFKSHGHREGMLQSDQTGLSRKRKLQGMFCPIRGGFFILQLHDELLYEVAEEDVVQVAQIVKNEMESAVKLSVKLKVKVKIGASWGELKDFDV
Method in brief: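 Covalent Kinact/KI by PicoGreen DNA synthesis readout: E. coli-expressed Polθ polymerase domain (0.8 nM), 100 nM annealed DNA substrate, […], Tris pH 7.5 buffer with DTT, 1% DMSO; EDTA-stopped over 0–60 min time course. kobs from progress curves, then kobs vs [I] fit to two-step covalent model.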

Kinact/Kl [M⁻¹ s⁻¹] | SMILES
200000 | C=CC(=O)N1CCC[C@H]1c1nc(CN2C[C@H]3CC(=O)N(c4cc(C(F)(F)F)cc(C)n4)[C@@H]3C(=O)N(C)c3cccc(C)c32)no1 [Example 271, (3aR,11aS)-5-((5-((S)-1-acryloylpyrrolidin-2-yl)-1,2,4-oxadiazol-3-yl)methyl)-6,10-dimethyl-1-(6-methyl-4-(trifluoromethyl)pyridin-2-yl)-1,3a,4,5,10,11a-hexahydro-2H-benzo[b]pyrrolo[2,3-f][1,4]diazocine-2,11(3H)-dione]
33000 | C=CC(=O)N1CCC[C@@H]1c1nnc(CN2C[C@H]3CC(=O)N(c4cc(C(F)(F)F)cc(C)n4)[C@@H]3C(=O)N(C)c3cccc(C)c32)o1 [Example 272, (3aR,11aS)-5-((5-((R)-1-acryloylpyrrolidin-2-yl)-1,3,4-oxadiazol-2-yl)methyl)-6,10-dimethyl-1-(6-methyl-4-(trifluoromethyl)pyridin-2-yl)-1,3a,4,5,10,11a-hexahydro-2H-benzo[b]pyrrolo[2,3-f][1,4]diazocine-2,11(3H)-dione]
60000 | C=CC(=O)N1CCC[C@H]1c1nnc(CN2C[C@H]3CC(=O)N(c4cc(C(F)(F)F)cc(C)n4)[C@@H]3C(=O)N(C)c3cccc(C)c32)o1 [Example 273, (3aR,11aS)-5-((5-((S)-1-acryloylpyrrolidin-2-yl)-1,3,4-oxadiazol-2-yl)methyl)-6,10-dimethyl-1-(6-methyl-4-(trifluoromethyl)pyridin-2-yl)-1,3a,4,5,10,11a-hexahydro-2H-benzo[b]pyrrolo[2,3-f][1,4]diazocine-2,11(3H)-dione]
470000 | C=CC(=O)N1CC[C@@H]1c1nnc(CN2C[C@H]3CC(=O)N(c4cc(C(F)(F)F)cc(C)n4)[C@@H]3C(=O)N(C)c3cccc(C)c32)o1 [Example 274, (3aR,11aS)-5-((5-((R)-1-acryloylazetidin-2-yl)-1,3,4-oxadiazol-2-yl)methyl)-6,10-dimethyl-1-(6-methyl-4-(trifluoromethyl)pyridin-2-yl)-1,3a,4,5,10,11a-hexahydro-2H-benzo[b]pyrrolo[2,3-f][1,4]diazocine-2,11(3H)-dione]
800000 | C=CC(=O)N1CC[C@H]1c1nnc(CN2C[C@H]3CC(=O)N(c4cc(C(F)(F)F)cc(C)n4)[C@@H]3C(=O)N(C)c3cccc(C)c32)o1 [Example 275, (3aR,11aS)-5-((5-((S)-1-acryloylazetidin-2-yl)-1,3,4-oxadiazol-2-yl)methyl)-6,10-dimethyl-1-(6-methyl-4-(trifluoromethyl)pyridin-2-yl)-1,3a,4,5,10,11a-hexahydro-2H-benzo[b]pyrrolo[2,3-f][1,4]diazocine-2,11(3H)-dione]
1.76e+06 | C=CC(=O)N1Cc2ccc(CN3C[C@H]4CC(=O)N(c5cc(C(F)(F)F)cc(C)n5)[C@@H]4C(=O)N(C)c4cccc(Cl)c43)nc2C1 [Example 276, (3aR,11aS)-5-((6-acryloyl-6,7-dihydro-5H-pyrrolo[3,4-b]pyridin-2-yl)methyl)-6-chloro-10-methyl-1-(6-methyl-4-(trifluoromethyl)pyridin-2-yl)-1,3a,4,5,10,11a-hexahydro-2H-benzo[b]pyrrolo[2,3-f][1,4]diazocine-2,11(3H)-dione]
80000 | C=CC(=O)N1Cc2cnc(CN3C[C@H]4CC(=O)N(c5cc(C(F)(F)F)cc(C)n5)[C@@H]4C(=O)N(C)c4cccc(Cl)c43)cc2C1 [Example 277, (3aR,11aS)-5-((2-acryloyl-2,3-dihydro-1H-pyrrolo[3,4-c]pyridin-6-yl)methyl)-6-chloro-10-methyl-1-(6-methyl-4-(trifluoromethyl)pyridin-2-yl)-1,3a,4,5,10,11a-hexahydro-2H-benzo[b]pyrrolo[2,3-f][1,4]diazocine-2,11(3H)-dione]
770000 | C=CC(=O)N1Cc2cnc(CN3C[C@H]4CC(=O)N(c5cc(C(F)(F)F)cc(C)n5)[C@@H]4C(=O)N(C)c4cccc(Cl)c43)nc2C1 [Example 278, (3aR,11aS)-5-((6-acryloyl-6,7-dihydro-5H-pyrrolo[3,4-d]pyrimidin-2-yl)methyl)-6-chloro-10-methyl-1-(6-methyl-4-(trifluoromethyl)pyridin-2-yl)-1,3a,4,5,10,11a-hexahydro-2H-benzo[b]pyrrolo[2,3-f][1,4]diazocine-2,11(3H)-dione]
900000 | C=CC(=O)N1Cc2nc(CN3C[C@H]4CC(=O)N(c5cc(C(F)(F)F)cc(C)n5)[C@@H]4C(=O)N(C)c4cccc(Cl)c43)n(CC)c2C1 [Example 279, (3aR,11aS)-5-((5-acryloyl-1-ethyl-1,4,5,6-tetrahydropyrrolo[3,4-d]imidazol-2-yl)methyl)-6-chloro-10-methyl-1-(6-methyl-4-(trifluoromethyl)pyridin-2-yl)-1,3a,4,5,10,11a-hexahydro-2H-benzo[b]pyrrolo[2,3-f][1,4]diazocine-2,11(3H)-dione]
2.54e+06 | C=CC(=O)N1Cc2nc(CN3C[C@H]4CC(=O)N(c5cc(C(F)(F)F)cc(C)n5)[C@@H]4C(=O)N(C)c4cccc(Cl)c43)sc2C1 [Example 280, (3aR,11aS)-5-((5-acryloyl-5,6-dihydro-4H-pyrrolo[3,4-d]thiazol-2-yl)methyl)-6-chloro-10-methyl-1-(6-methyl-4-(trifluoromethyl)pyridin-2-yl)-1,3a,4,5,10,11a-hexahydro-2H-benzo[b]pyrrolo[2,3-f][1,4]diazocine-2,11(3H)-dione]
1.05e+06 | C=CC(=O)N1CCOc2cc(CN3C[C@H]4CC(=O)N(c5cc(C(F)(F)F)cc(C)n5)[C@@H]4C(=O)N(C)c4cccc(Cl)c43)ccc21 [Example 281, (3aR,11aS)-5-((4-acryloyl-3,4-dihydro-2H-benzo[b][1,4]oxazin-7-yl)methyl)-6-chloro-10-methyl-1-(6-methyl-4-(trifluoromethyl)pyridin-2-yl)-1,3a,4,5,10,11a-hexahydro-2H-benzo[b]pyrrolo[2,3-f][1,4]diazocine-2,11(3H)-dione]
870000 | C=CC(=O)Nc1ccc(CN2C[C@H]3CC(=O)N(c4cc(C(F)(F)F)cc(C)n4)[C@@H]3C(=O)N(C)c3cccc(Cl)c32)cn1 [Example 282, N-(5-(((3aR,11aS)-6-chloro-10-methyl-1-(6-methyl-4-(trifluoromethyl)pyridin-2-yl)-2,11-dioxo-1,2,3,3a,4,10,11,11a-octahydro-5H-benzo[b]pyrrolo[2,3-f][1,4]diazocin-5-yl)methyl)pyridin-2-yl)acrylamide]
950000 | C=CC(=O)Nc1ccc(CN2C[C@H]3CC(=O)N(c4cc(C(F)(F)F)cc(C)n4)[C@@H]3C(=O)N(C)c3cccc(Cl)c32)nc1 [Example 283, N-(6-(((3aR,11aS)-6-chloro-10-methyl-1-(6-methyl-4-(trifluoromethyl)pyridin-2-yl)-2,11-dioxo-1,2,3,3a,4,10,11,11a-octahydro-5H-benzo[b]pyrrolo[2,3-f][1,4]diazocin-5-yl)methyl)pyridin-3-yl)acrylamide]
770000 | C=CC(=O)Nc1cnc(CN2C[C@H]3CC(=O)N(c4cc(C(F)(F)F)cc(C)n4)[C@@H]3C(=O)N(C)c3cccc(Cl)c32)nc1 [Example 284, N-(2-(((3aR,11aS)-6-chloro-10-methyl-1-(6-methyl-4-(trifluoromethyl)pyridin-2-yl)-2,11-dioxo-1,2,3,3a,4,10,11,11a-octahydro-5H-benzo[b]pyrrolo[2,3-f][1,4]diazocin-5-yl)methyl)pyrimidin-5-yl)acrylamide]
1.98e+06 | C=CC(=O)N1CC(F)(COCCN2C[C@H]3CC(=O)N(c4cc(C(F)(F)F)cc(C)n4)[C@@H]3C(=O)N(C)c3cccc(Cl)c32)C1 [Example 285, (3aR,11aS)-5-(2-((1-acryloyl-3-fluoroazetidin-3-yl)methoxy)ethyl)-6-chloro-10-methyl-1-(6-methyl-4-(trifluoromethyl)pyridin-2-yl)-1,3a,4,5,10,11a-hexahydro-2H-benzo[b]pyrrolo[2,3-f][1,4]diazocine-2,11(3H)-dione]
610000 | C=CC(=O)NC1Cc2ccc(CN3C[C@H]4CC(=O)N(c5cc(C(F)(F)F)cc(C)n5)[C@@H]4C(=O)N(C)c4cccc(Cl)c43)cc2C1 (stereo partly drawn) [Example 286, N-(5-(((3aR,11aS)-6-chloro-10-methyl-1-(6-methyl-4-(trifluoromethyl)pyridin-2-yl)-2,11-dioxo-1,2,3,3a,4,10,11,11a-octahydro-5H-benzo[b]pyrrolo[2,3-f][1,4]diazocin-5-yl)methyl)-2,3-dihydro-1H-inden-2-yl)acrylamide]
